The values that follow come from US20240343757A1, “PROCESS FOR THE PREPARATION OF BUDESONIDE 21-PHOSPHATE” (GENETIC S.P.A., priority 2021, published 2024).

For data set [1] the following is noted: background statement; cited from earlier work.
For data set [2] the following is noted: background statement; cited from earlier work. This is another data set of the same source.
The nature of another data set: Solubility in water. Type of data set: physicochemical. An excerpt:
55, no. 1, pp. 578-582] at physiological pH in the intestinal region.
For this reason, hydroalcoholic solutions are usually prepared dissolving an adequate amount of active substance in solubilizers such as water-soluble alcohols. However, the so prepared solutions have low stability because large amounts of budesonide are decomposed within a short time. Moreover, budesonide formulations have been prepared until now in the form of aqueous suspensions in which the solid phase tends in time to deposit onto the bottom of the container, thus requiring chemical additives or vigorous stirring. These are the reasons that make budesonide not suitable to be delivered by an electric nebulizer.
Budesonide 21-phosphate disodium salt has a much higher water solubility than Budesonide and Budesonide 21-phosphate.

Data set [3] in a line: Stability in aqueous solution at the concentration of use, room temperature. Type of data set: physicochemical. Particulars: concentration of use 0.25 mg ml-4.0 mg ml. How it is done:
At the concentration of use (0.25 mg ml-4.0 mg ml), it is rapidly soluble and remains stable at room temperature for long periods of time (12 months) without yellowing or precipitating.

Data set [4] in a line: ICH stability testing of budesonide 21-phosphate disodium salt (drug substance). In kind it is physicochemical. Particulars: for assay content by HPLC: specification 95.0-105.0%; for unknown impurities: specification ≤0.1%; for known impurities: specification ≤0.2%. How it is done: Purity was assessed through the HPLC method of the European Pharmacopoeia 1075-Budesonide-related substance. […]

Setting [5] is: 40° C. and 75% RH (accelerated), Time 0.
[6] abbreviates: 40° C. and 75% RH (accelerated), Time 3 m.
The mark [7] stands for this setting: 40° C. and 75% RH (accelerated), Time 6 m.

Turning to `CCCC1OC2CC3C4CCC5=CC(=O)C=CC5(C)C4C(O)CC3(C)C2(C(=O)CO)O1` (stereo not drawn) [Budesonide, 1β,21-dihydroxy-16α, 17α-(butylidenebis(oxy)) pregna-1,4-diene-3,20-dione], the “solubility in alcohols” value in data set [1] was “readily soluble in alcohols”. The “solubility in water” value in data set [2] is “virtually insoluble in water”.

For the compound Budesonide 21-phosphate disodium salt, the water solubility in “Solubility in water” came out at 110 mg/mL. Moreover, in the data set “Solubility in water” (freely soluble = 100-1000 mg/mL), the “water solubility class” value is “freely soluble in water”. Further, the “period stable in solution without yellowing or precipitating” value in data set [3] was found to be 12 months. Moreover, the “assay content by HPLC” value in data set [4] (25° C. and 60% RH, Time 0) stood at 98.22%; in data set [4] (25° C. and 60% RH, Time 3 m), 98.10%; in data set [4] (25° C. and 60% RH, Time 6 m), 98.08%; in data set [4] (25° C. and 60% RH, Time 9 m) it was 97.85%; in data set [4] (25° C. and 60% RH, Time 12 m) it was 97.45%; in data set [4] (30° C. and 65% RH, Time 0), 98.22%. For the same compound, the “assay content by HPLC” value in data set [4] (30° C. and 65% RH, Time 3 m) is 97.50%; in data set [4] (30° C. and 65% RH, Time 6 m) it was 97.28%; in data set [4] (30° C. and 65% RH, Time 9 m), 97.00%; in data set [4] (30° C. and 65% RH, Time 12 m), 94.55%; in data set [4] (setting [5]) it was 98.22%; in data set [4] (setting [6]) it was 96.50%. Besides, the “assay content by HPLC” value in data set [4] (setting [7]) worked out at 93.28%. Moreover, the unknown impurities in data set [4] (25° C. and 60% RH, Time 0) worked out at 0.05%; in data set [4] (25° C. and 60% RH, Time 3 m), 0.05%; in data set [4] (25° C. and 60% RH, Time 6 m) it was 0.05%; in data set [4] (25° C. and 60% RH, Time 9 m) it was 0.08%; in data set [4] (25° C. and 60% RH, Time 12 m) it was 0.08%; in data set [4] (30° C. and 65% RH, Time 0) it was 0.05%. The unknown impurities in data set [4] (30° C. and 65% RH, Time 3 m) is given as 0.15%; in data set [4] (30° C. and 65% RH, Time 6 m), 0.15%; in data set [4] (30° C. and 65% RH, Time 9 m), 0.40%; in data set [4] (30° C. and 65% RH, Time 12 m), 0.40%; in data set [4] (setting [5]), under 0.05%; in data set [4] (setting [6]), 2.45%. Besides, in data set [4] (setting [7]), the unknown impurities was 2.80%. Also, the known impurities amounted to 0.14% in data set [4] (25° C. and 60% RH, Time 0); 0.14% in data set [4] (25° C. and 60% RH, Time 3 m); 0.14% in data set [4] (25° C. and 60% RH, Time 6 m); 0.15% in data set [4] (25° C. and 60% RH, Time 9 m); 0.15% in data set [4] (25° C. and 60% RH, Time 12 m); 0.14% in data set [4] (30° C. and 65% RH, Time 0). Moreover, the known impurities in data set [4] (30° C. and 65% RH, Time 3 m) came to 0.20%; in data set [4] (30° C. and 65% RH, Time 6 m), 0.25%; in data set [4] (30° C. and 65% RH, Time 9 m) it was 0.25%; in data set [4] (30° C. and 65% RH, Time 12 m), 0.30%; in data set [4] (setting [5]), 0.14%; in data set [4] (setting [6]), 0.30%. Further, the known impurities in data set [4] (setting [7]) was 0.45%.
